Measured values reported in PubChem BioAssay (NCI).
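Briefly, cells in 96-well plates were exposed to five compound concentrations for 48 h, and endpoints were estimated by linear interpolation. Definition used: TGI = concentration required for complete inhibition of growth.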

Tests used:
Assay in all cases: inhibition of tumour cell growth, NCI panel, 48 h
UO-31 renal = tested on: UO-31 renal
HS 578T breast = tested on: HS 578T breast
A498 renal = tested on: A498 renal
HT29 colon = tested on: HT29 colon
EKVX NSCLC = tested on: EKVX NSCLC
MOLT-4 leukemia = tested on: MOLT-4 leukemia
HOP-92 NSCLC = tested on: HOP-92 NSCLC
MDA-N = tested on: MDA-N
SF-539 CNS = tested on: SF-539 CNS
UACC-62 melanoma = tested on: UACC-62 melanoma
IGROV1 ovarian = tested on: IGROV1 ovarian
KM12 colon = tested on: KM12 colon
CCRF-CEM leukemia = tested on: CCRF-CEM leukemia
OVCAR-4 ovarian = tested on: OVCAR-4 ovarian
HOP-62 NSCLC = tested on: HOP-62 NSCLC
U251 CNS = tested on: U251 CNS
TK-10 renal = tested on: TK-10 renal
786-0 renal = tested on: 786-0 renal
HL-60(TB) leukemia = tested on: HL-60(TB) leukemia
CAKI-1 renal = tested on: CAKI-1 renal
OVCAR-5 ovarian = tested on: OVCAR-5 ovarian
RXF 393 renal = tested on: RXF 393 renal
MDA-MB-435 = tested on: MDA-MB-435
HCT-116 colon = tested on: HCT-116 colon
MALME-3M melanoma = tested on: MALME-3M melanoma
SK-MEL-5 melanoma = tested on: SK-MEL-5 melanoma
COLO 205 colon = tested on: COLO 205 colon
MDA-MB-231 breast = tested on: MDA-MB-231 breast
SK-OV-3 ovarian = tested on: SK-OV-3 ovarian
T-47D breast = tested on: T-47D breast
ACHN renal = tested on: ACHN renal
NCI-H460 lung = tested on: NCI-H460 lung
LOX IMVI melanoma = tested on: LOX IMVI melanoma
NCI-H522 lung = tested on: NCI-H522 lung
SNB-19 CNS = tested on: SNB-19 CNS
HCT-15 colon = tested on: HCT-15 colon
SK-MEL-28 melanoma = tested on: SK-MEL-28 melanoma
UACC-257 melanoma = tested on: UACC-257 melanoma
SW-620 colon = tested on: SW-620 colon
SR leukemia = tested on: SR leukemia
PC-3 prostate = tested on: PC-3 prostate
NCI-H23 lung = tested on: NCI-H23 lung
M14 melanoma = tested on: M14 melanoma
BT-549 breast = tested on: BT-549 breast
K-562 leukemia = tested on: K-562 leukemia
NCI-H226 lung = tested on: NCI-H226 lung
SF-295 CNS = tested on: SF-295 CNS
SK-MEL-2 melanoma = tested on: SK-MEL-2 melanoma
OVCAR-3 ovarian = tested on: OVCAR-3 ovarian
HCC-2998 colon = tested on: HCC-2998 colon
OVCAR-8 ovarian = tested on: OVCAR-8 ovarian
MCF7 breast = tested on: MCF7 breast
A549 NSCLC = tested on: A549 NSCLC
NCI/ADR-RES ovarian = tested on: NCI/ADR-RES ovarian
SF-268 CNS = tested on: SF-268 CNS
SN12C renal = tested on: SN12C renal
DU-145 prostate = tested on: DU-145 prostate
RPMI-8226 leukemia = tested on: RPMI-8226 leukemia
SNB-75 CNS = tested on: SNB-75 CNS

Measured: TGI

COc1cc(OC)c2c(c1)OC(c1cccnc1)C(c1ccccc1)C2=O (stereo not given)
> 100 µM: all assays above

COc1ccccc1C(=O)NCC1CCCN2CCCCC12 (stereo not given)
> 100 µM: all assays above

C(#CP(c1ccccc1)c1ccccc1)P(C#CP(c1ccccc1)c1ccccc1)c1ccccc1
13 µM: M14 melanoma
97.6 µM: SF-295 CNS
26.1 µM: SK-OV-3 ovarian
not listed: LOX IMVI melanoma | NCI-H23 lung
> 100 µM: all other assays above
